Assay [1] deals with U-251. Kind of assay: Compound along with Tween 20 and SucCn was evaluated for inhibitory effect on growth of glioma (U251) cells; Effective. It is filed as functional, cell-based. The settings on record: Homo sapiens.
In assay [2] the test system is U-251. The assay is described as follows: Compound alone was evaluated for inhibitory effect on growth of glioma (U251) cells; Ineffective. The conditions noted are these: Homo sapiens. Format: functional, cell-based.

SMILES strings stand for the structures.

As to `CCCCCCCCCC(=O)OC[C@@H]1OC(O[C@]2(CO)OC(CO)C(O)[C@@H]2O)[C@@H](O)[C@H](O)[C@H]1O` (single isomer, unassigned), the values for the Activity result in assay [1] and in assay [2] were “Effective” and “Ineffective”, respectively.
The corresponding values for `CCCCCCCCCCCCCC(=O)OCC(COP(=O)([O-])OCC[N+](C)(C)C)OC(=O)CCCCCCCCCCCCC` (stereo unspecified) are “Effective” and “Ineffective”.
In the same order, the values of `CCCCCCCCCCCC(=O)OC[C@@H]1O[C@H](O[C@]2(CO)O[C@H](CO)[C@@H](O)[C@@H]2O)[C@@H](O)[C@@H](O)[C@@H]1O` are “Effective” and “Ineffective”.

Source of the values: ChEMBL document CHEMBL1132824, “Highly specific inhibitory effect of three-component hybrid liposomes including sugar surfactants on the growth of glioma cells” (Bioorg Med Chem Lett, 2000).
